Reference: patent publication US6376211B1, “Agents and methods for inhibiting F1/F0 ATPase” (XOMA Technology Ltd., priority 1999, dated 2002)

Columns and labels:
bacterial growth = details: cited from earlier work
[1] = target: T1, mammalian mitochondrial ATP synthase; experiment: Phosphatase activity of ATP synthase in mitochondrial membrane preparations (mouse liver); format: biochemical; details: 1.35 μM rBPI21, 0.082 and 0.482 μM XMP.391, 0.076 and 0.553 μM XMP.416
T1 construct: ATP synthase enzymic activity in mitochondrial preparations; from tissue; host or cells: mouse liver mitochondria, deoxycholate-lysed membrane pellet
Protocol: The effect of BPI protein products on ATP synthase enzymic activity in mitochondrial preparations was evaluated. Mitochondrial membrane preparations were prepared as follows. Male laboratory mice (Mus musculus) were sacrificed by cervical dislocation and their livers were immediately excised. The gall bladder and connective tissues were removed and the livers were washed in 0.25 M sucrose. Wet liver weight was determined after blotting the washed liver on absorbent paper. All subsequent steps of the fractionation procedure were performed on ice. The weighted livers were then homogenized with a Potter Elvehjem tissue homogenizer and six passes of a teflon pestle in 9 volumes of 0.25 M sucrose with protease inhibitors (2 μg/mL pepstatin A, 2 μg/mL aprotinin and 1 mM phenylmethylsulfonyl fluoride (PMSF). Liver homogenates were then centrifuged in a Beckman (Fullerton, Calif.) J2-21 centrifuge for 10 minutes at 600×g. The 600×g pellet (nuclei, unbroken cells and connective tissue) was discarded and the supernatant was subjected to further centrifugation. The 600×g supernatant was centrifuged at 7000×g for 10 minutes to yield a crude mitochondrial pellet.
Crude mitochondria were resuspended in 3 volumes of the original liver weight with 0.25 M sucrose and centrifuged at 7000×g for 10 minutes. The supernatant was discarded and the procedure was repeated. […]

whole cells [2] = experiment: Metabolic oxidation-reduction indicator dye (Alamar Blue) assay of whole cells (general description); format: cell-based; details: at a less than fully cytotoxic concentration
Excerpt: (§1) The effect of test compounds on ATP synthase activity of whole cells can also optionally be assayed using any membrane potential indicator dye or metabolic oxidation-reduction indicator dye known in the art. See Loew, Chapter 8 in Biomembrane Electrochemistry, Blank and Vodyanoy, eds., American Chemical Society, Washington, DC (1994), pages 151-173. Particularly preferred dyes are membrane potential dyes such as DiOC6(3), JC-1, rhodamine 123, or MitoTracker® reduced dyes [Molecular Probes, Eugene, Oreg.]. […] Other preferred dyes are metabolic oxidation-reduction indicator dyes such as Alamar Blue™ [AccuMed Int'l, Westlake, Ohio]. […] See U.S. Provisional Application Ser. No. 60/143,290 filed Jul. 12, 1999 and corresponding co-owned, concurrently filed U.S. application Ser. No. 09/543,955, both of which are incorporated herein by reference and U.S. Provisional Application Ser. No. 60/143,485 filed Jul. 12, 1999 and corresponding U.S. application Ser. No. 09/404,926 filed Sep. 24, 1999 and International Application No. PCT/US99/22361 filed Sep. 24, 1999, all of which are incorporated herein by reference. Iterative screening for compound selection may employ one or combination of assays for testing.

E. coli = experiment: Metabolic oxidation-reduction indicator dye Alamar Blue assay; format: cell-based
Protocol: (§2) The effect of antibacterial BPI protein products on the activity of bacterial ATP synthase as measured by a metabolic oxidation-reduction indicator dye and a membrane potential indicator dye was determined as described in Example 2 of U.S. Provisional Application Ser. No. 60/143,290 filed Jul. 12, 1999 and corresponding co-owned, concurrently filed U.S. application Ser. No. 09/543,955, both of which are incorporated herein by reference and Example 9 of U.S. Provisional Application Ser. No. 60/143,485 filed Jul. 12, 1999 and corresponding U.S. application Ser. No. 09/404,926 filed Sep. 24, 1999 and International Application No. PCT/US99/22361 filed Sep. 24, 1999, all of which are incorporated herein by reference.

E. coli ATP synthase = details: bacterial membrane preparations; about ... and higher
Protocol: The effect of antibacterial BPI protein products on the ATP synthesis activity of an E. coli ATP synthase was determined as follows. Bacterial membranes were prepared as follows. A 400 mL culture of E. coli was grown overnight in TSB at 37° C. with shaking. Cells were harvested by centrifugation for 10 minutes at 1000×g, followed by washing with 20 mL of PBS and recentrifugation. Cells were resuspended in 4 ml of 25 mM HEPES, pH 7.6, 0.1 M KCl, 0.1 M EDTA, 12.5 mM MgCl2, 10% glycerol, 0.1% NP40. Then 50 μl of lysozyme (50 mg/ml) was added and the cells were incubated for 30 minutes on ice. Cells were disrupted by sonication in 3×30-second pulses. Cells were placed on ice between pulses. DNAse I was added to a 10 μg/mL final concentration (GIBCO Life Technologies, Gaithersburg, Md.) and the homogenate was left on ice for 30 minutes. […] The final pellet was resuspended in 2 mL 10 mM Tris-HC1, pH 7.0, 0.1 mM EDTA, 20% glycerol and protein concentration was determined by standard Bradford assay.
In a 96 well plate (Microlite 1, DYNEX Technologies, Chantilly Va.), 25 μg bacterial membranes were diluted into 100 μl of 55.5 mM Tris-HC1, pH 7.8, 0.222 mM MgSO4 plus the compound to be tested (XMP.391 (SEQ ID NO: 4) and rBPI21 at concentrations ranging from 40 μg/mL to 0.625 μg/mL). […] Assays were read in Endpoint mode with 30 reads per well.

whole cells [3] = experiment: Membrane potential indicator dye assay of whole cells (general description); format: cell-based; details: retention of the dye notwithstanding onset of loss of viability at the same concentration
Excerpt: as §1

E. coli O111:B4 [4] = experiment: In vitro bactericidal activity; format: cell-based
E. coli O111:B4 [5] = experiment: Membrane potential indicator dye DiOC6(3) assay; format: cell-based
Protocol: as §2

Substance | concentration required to produce a therapeutic effect (bacterial growth) [µg/mL] | inhibition of phosphatase activity of ATP synthase [1] | pattern of metabolic oxidation-reduction activity relative to control cells (whole cells [2]) | apparent metabolic activity relative to untreated controls (E. coli) | concentration at which synthesis of ATP from ADP is inhibited in a dose-dependent manner (E. coli ATP synthase) [µg/mL] | pattern of accumulation of membrane potential dye in cells (whole cells [3]) | in vitro bactericidal activity (E. coli O111:B4 [4]) | accumulation and retention of membrane potential dye (E. coli O111:B4 [5])
gentamicin | 8 |  |  |  |  |  |  | 
XMP.391: BPI-derived peptide, SEQ ID NO: 4 (KVGWLIQLFHKK) |  | inhibited the phosphatase activity | increased metabolic oxidation-reduction activity relative to control cells | apparent increased metabolic activity | ≥ 1 |  |  | 
XMP.416: BPI-derived peptide, SEQ ID NO: 5 (KWLIQLFHKK) |  | inhibited the phosphatase activity | increased metabolic oxidation-reduction activity relative to control cells |  |  |  |  | 
XMP.365: BPI-derived peptide, SEQ ID NO: 3; structure described in U.S. Pat. No. 5,858,974 (KWLIQLFHKK) |  |  | increased metabolic oxidation-reduction activity relative to control cells | apparent increased metabolic activity |  | accumulation in cells of membrane potential dye in a peptide concentration-dependent manner | has in vitro bactericidal activity against this strain | produced an accumulation and retention of the dye despite cell death
